Data from US6737383B1, “Herbicidal oxadiazolidines” (priority 1999, dated 2004).

Legend:
bedstraw = test: Test B pre/postemergence bedstraw; format: in vivo, Galium aparine
Outline: (§1)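 Test chemicals in a non-phytotoxic solvent mixture with surfactant were sprayed preemergence onto planted seeds and postemergence onto plants 2 to 18 cm tall (1- to 4-leaf stage). After twelve to sixteen days in a greenhouse, injury was visually rated against untreated controls from 0 (no effect) to 10 (complete control).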

blackgrass = test: Test B pre/postemergence blackgrass; format: in vivo, Alopecurus myosuroides
Outline: as §1

surinam grass = test: Test B pre/postemergence surinam grass; format: in vivo, Brachiaria decumbens
Outline: as §1

cocklebur = test: Test B pre/postemergence cocklebur; format: in vivo, Xanthium strumarium
Outline: as §1

corn = test: Test B pre/postemergence corn; format: in vivo, Zea mays
Outline: as §1

crabgrass = test: Test B pre/postemergence crabgrass; format: in vivo, Digitaria sanguinalis
Outline: as §1

giant foxtail = test: Test B pre/postemergence giant foxtail; format: in vivo, Setaria faberii
Outline: as §1

morningglory = test: Test B pre/postemergence morningglory; format: in vivo, Ipomoea hederacea
Outline: as §1

pigweed = test: Test B pre/postemergence pigweed; format: in vivo, Amaranthus retroflexus
Outline: as §1

rape = test: Test B pre/postemergence rape; format: in vivo, Brassica napus
Outline: as §1

soybean = test: Test B pre/postemergence soybean; format: in vivo, Glycine max
Outline: as §1

sugar beet = test: Test B pre/postemergence sugar beet; format: in vivo, Beta vulgaris
Outline: as §1

velvetleaf = test: Test B pre/postemergence velvetleaf; format: in vivo, Abutilon theophrasti
Outline: as §1

wheat = test: Test B pre/postemergence wheat; format: in vivo, Triticum aestivum
Outline: as §1

wild oat = test: Test B pre/postemergence wild oat; format: in vivo, Avena fatua
Outline: as §1

purple nutsedge = test: Test B pre/postemergence purple nutsedge; format: in vivo, Cyperus rotundus
Outline: as §1

[1] = Postemergence, Rate 62 g/ha, scale of 0 to 10, 0 is no effect, 10 is complete control
[2] = Postemergence, Rate 125 g/ha, scale 0 to 10, 0 is no effect, 10 is complete control
[3] = Postemergence, Rate 500 g/ha, scale of 0 to 10 where 0 is no effect and 10 is complete control
[4] = Preemergence, Rate 62 g/ha, scale 0 to 10 (0 no effect, 10 complete control)
[5] = Preemergence, Rate 125 g/ha, scale 0 to 10, 0 is no effect, 10 is complete control
[6] = Preemergence, Rate 500 g/ha, scale of 0 to 10 where 0 is no effect and 10 is complete control
[7] = Rate 250 g/ha, Postemergence, scale of 0 to 10 where 0 is no effect and 10 is complete control

For CCOCn1c(=O)on(C(=O)N(c2ccccc2)C(C)C)c1=O [Compound 563], the “Bedstraw plant response rating” value (bedstraw; [1]) was 0, the “Bedstraw plant response rating” value (bedstraw; [2]) was 0 and the “Plant response rating, Bedstraw” value (bedstraw; [3]) was 0. The “Bedstraw plant response rating” value (bedstraw; [4]) was 0, the “Bedstraw plant response rating” value (bedstraw; [5]) was 0 and the “Bedstraw plant response rating (0 to 10 scale)” value (bedstraw; Preemergence, Rate 250 g/ha) was 0. The “Bedstraw plant response rating” value (bedstraw; [6]) was 0, the “Blackgrass plant response rating” value (blackgrass; [1]) was 0 and the “Blackgrass plant response rating” value (blackgrass; [2]) was 0. The “Plant response rating, Blackgrass” value (blackgrass; [3]) was 4, the “Blackgrass plant response rating” value (blackgrass; [4]) was 2 and the “Blackgrass plant response rating” value (blackgrass; [5]) was 8. The “Blackgrass plant response rating (0 to 10 scale)” value (blackgrass; Preemergence, Rate 250 g/ha) was 9, the “Blackgrass plant response rating” value (blackgrass; [6]) was 9 and the “Plant response rating, Blackgrass” value (blackgrass; [7]) was 4. The “B. signalgrass plant response rating” value (surinam grass; [1]) was 0, the “B. signalgrass plant response rating” value (surinam grass; [2]) was 4 and the “Plant response rating, B. signalgrass” value (surinam grass; [3]) was 7. For the same compound, the “B. signalgrass plant response rating” value (surinam grass; [4]) was 3, the “B. signalgrass plant response rating” value (surinam grass; [5]) was 9 and the “B. signalgrass plant response rating (0 to 10 scale, 0 is no effect, 10 is complete control)” value (surinam grass; Preemergence, Rate 250 g/ha) was 9. The “B. signalgrass plant response rating” value (surinam grass; [6]) was 10, the “Plant response rating, B. signalgrass” value (surinam grass; [7]) was 5 and the “Cocklebur plant response rating” value (cocklebur; [1]) was 0. For the same compound, the “Cocklebur plant response rating” value (cocklebur; [2]) was 0, the “Plant response rating, Cocklebur” value (cocklebur; [3]) was 2 and the “Cocklebur plant response rating” value (cocklebur; [4]) was 0. The “Cocklebur plant response rating” value (cocklebur; [5]) was 0, the “Cocklebur plant response rating (0 to 10 scale)” value (cocklebur; Preemergence, Rate 250 g/ha) was 0 and the “Cocklebur plant response rating” value (cocklebur; [6]) was 2. The “Plant response rating, Cocklebur” value (cocklebur; [7]) was 0, the “Corn plant response rating” value (corn; [1]) was 0 and the “Corn plant response rating” value (corn; [2]) was 0. For the same compound, the “Plant response rating, Corn” value (corn; [3]) was 8, the “Corn plant response rating” value (corn; [4]) was 0 and the “Corn plant response rating” value (corn; [5]) was 0. For the same compound, the “Corn plant response rating (0 to 10 scale)” value (corn; Preemergence, Rate 250 g/ha) was 4, the “Corn plant response rating” value (corn; [6]) was 9 and the “Plant response rating, Corn” value (corn; [7]) was 4. For the same compound, the “Crabgrass plant response rating” value (crabgrass; [1]) was 9, the “Crabgrass plant response rating” value (crabgrass; [2]) was 9 and the “Plant response rating, Crabgrass” value (crabgrass; [3]) was 9. The “Crabgrass plant response rating” value (crabgrass; [4]) was 8, the “Crabgrass plant response rating” value (crabgrass; [5]) was 9 and the “Crabgrass plant response rating (0 to 10 scale)” value (crabgrass; Preemergence, Rate 250 g/ha) was 10. For the same compound, the “Crabgrass plant response rating” value (crabgrass; [6]) was 9, the “Plant response rating, Crabgrass” value (crabgrass; [7]) was 8 and the “Giant foxtail plant response rating” value (giant foxtail; [1]) was 6. The “Giant foxtail plant response rating” value (giant foxtail; [2]) was 8, the “Plant response rating, Giant foxtail” value (giant foxtail; [3]) was 9 and the “Giant foxtail plant response rating” value (giant foxtail; [4]) was 9. The “Giant foxtail plant response rating” value (giant foxtail; [5]) was 9, the “Giant foxtail plant response rating (0 to 10 scale)” value (giant foxtail; Preemergence, Rate 250 g/ha) was 10 and the “Giant foxtail plant response rating” value (giant foxtail; [6]) was 10. The “Plant response rating, Giant foxtail” value (giant foxtail; [7]) was 8, the “Morningglory plant response rating” value (morningglory; [1]) was 4 and the “Morningglory plant response rating” value (morningglory; [2]) was 6. For the same compound, the “Plant response rating, Morningglory” value (morningglory; [3]) was 10, the “Morningglory plant response rating” value (morningglory; [4]) was 0 and the “Morningglory plant response rating” value (morningglory; [5]) was 0. For the same compound, the “Morningglory plant response rating (0 to 10 scale)” value (morningglory; Preemergence, Rate 250 g/ha) was 0, the “Morningglory plant response rating” value (morningglory; [6]) was 3 and the “Plant response rating, Morningglory” value (morningglory; [7]) was 10. The “Redroot pigweed plant response rating” value (pigweed; [1]) was 0, the “Plant response rating, Redroot pigweed” value (pigweed; [3]) was 5 and the “Redroot pigweed plant response rating” value (pigweed; [4]) was 4. The “Redroot pigweed plant response rating” value (pigweed; [5]) was 9, the “Redroot pigweed plant response rating (0 to 10 scale)” value (pigweed; Preemergence, Rate 250 g/ha) was 9 and the “Redroot pigweed plant response rating” value (pigweed; [6]) was 9. The “Plant response rating, Redroot pigweed” value (pigweed; [7]) was 5, the “Rape plant response rating” value (rape; [1]) was 0 and the “Rape plant response rating” value (rape; [2]) was 0. The “Plant response rating, Rape” value (rape; [3]) was 5, the “Rape plant response rating” value (rape; [4]) was 0 and the “Rape plant response rating” value (rape; [5]) was 4. For the same compound, the “Rape plant response rating (0 to 10 scale)” value (rape; Preemergence, Rate 250 g/ha) was 9, the “Rape plant response rating” value (rape; [6]) was 9 and the “Plant response rating, Rape” value (rape; [7]) was 5. The “Soybean plant response rating” value (soybean; [1]) was 5, the “Plant response rating, Soybean” value (soybean; [3]) was 5 and the “Soybean plant response rating” value (soybean; [4]) was 0. For the same compound, the “Soybean plant response rating” value (soybean; [5]) was 0, the “Soybean plant response rating (0 to 10 scale)” value (soybean; Preemergence, Rate 250 g/ha) was 3 and the “Soybean plant response rating” value (soybean; [6]) was 6. For the same compound, the “Plant response rating, Soybean” value (soybean; [7]) was 3, the “Sugarbeets plant response rating” value (sugar beet; [1]) was 0 and the “Plant response rating, Sugarbeets” value (sugar beet; [3]) was 0. For the same compound, the “Sugarbeets plant response rating” value (sugar beet; [4]) was 2, the “Sugarbeets plant response rating” value (sugar beet; [5]) was 3 and the “Sugarbeets plant response rating (0 to 10 scale)” value (sugar beet; Preemergence, Rate 250 g/ha) was 3. The “Sugarbeets plant response rating” value (sugar beet; [6]) was 4, the “Plant response rating, Sugarbeets” value (sugar beet; [7]) was 0 and the “Velvetleaf plant response rating” value (velvetleaf; [1]) was 0. For the same compound, the “Plant response rating, Velvetleaf” value (velvetleaf; [3]) was 4, the “Velvetleaf plant response rating” value (velvetleaf; [4]) was 3 and the “Velvetleaf plant response rating” value (velvetleaf; [5]) was 3. The “Velvetleaf plant response rating (0 to 10 scale)” value (velvetleaf; Preemergence, Rate 250 g/ha) was 6, the “Velvetleaf plant response rating” value (velvetleaf; [6]) was 7 and the “Plant response rating, Velvetleaf” value (velvetleaf; [7]) was 2. The “Wheat plant response rating” value (wheat; [1]) was 0, the “Plant response rating, Wheat” value (wheat; [3]) was 0 and the “Wheat plant response rating” value (wheat; [4]) was 3. The “Wheat plant response rating” value (wheat; [5]) was 8, the “Wheat plant response rating (0 to 10 scale)” value (wheat; Preemergence, Rate 250 g/ha) was 9 and the “Wheat plant response rating” value (wheat; [6]) was 10. For the same compound, the “Plant response rating, Wheat” value (wheat; [7]) was 0, the “Wild oats plant response rating” value (wild oat; [1]) was 0 and the “Plant response rating, Wild oats” value (wild oat; [3]) was 0. For the same compound, the “Wild oats plant response rating” value (wild oat; [4]) was 2, the “Wild oats plant response rating” value (wild oat; [5]) was 9 and the “Wild oats plant response rating (0 to 10 scale)” value (wild oat; Preemergence, Rate 250 g/ha) was 9. For the same compound, the “Wild oats plant response rating” value (wild oat; [6]) was 10, the “Plant response rating, Wild oats” value (wild oat; [7]) was 0 and the “Nutsedge plant response rating” value (purple nutsedge; [1]) was 0. The “Nutsedge plant response rating” value (purple nutsedge; [2]) was 0, the “Nutsedge plant response rating” value (purple nutsedge; [4]) was 0 and the “Nutsedge plant response rating” value (purple nutsedge; [5]) was 0. The “Nutsedge plant response rating (0 to 10 scale)” value (purple nutsedge; Preemergence, Rate 250 g/ha) was 0 and the “Plant response rating, Nutsedge” value (purple nutsedge; [7]) was 0.
